Structures can show the parent of a compound that is named as a salt. Where two headings read alike, the source gives them in different places. Where a SMILES comes first, the peptide text is derived from it.
Key:
[1] = Comparative taste test, D- versus L-configuration (Table 2, FIG. 3); parameters: Sweet? (average score) / Bitter? (average score) / Salty? (average score) / Off Taste? (average score) / After Taste? (average score): scale not given here
Experimental: The compounds were dissolved in distilled water at the concentrations specified in Table 2. Solutions were made up and kept overnight in a refrigerator. The following day, they were poured into individual graduated plastic cups (10 ml per cup) and allowed to warm to room temperature. A taste panel was convened and testing begun that same day. Tasting and evaluation was done by the standard protocol developed by Dr. Robert Gesteland of Taste and Smell Consulting Group, Inc.
The first solution tasted (reference standard for the panel) was 0.25M sucrose. Other solutions were tasted in radomized fashion. The random order was arrived at as follows:
i. An ordered list of the compounds and concentrations was prepared (26 solutions in all).
ii. 0.25M sucrose was designated as 1.
iii. A standard table of random numbers was used in which the numbers were grouped as two-digit numbers. A point in the table was chosen at random (blind pointing). The first solution in the list was given the first random number in the sequence (read right-to-left, up-to-down) which is between 2 and 26. The second solution in the list was given the next random number in the sequence between 2 and 26, etc. Repeat numbers were ignored.
iv. Solutions were then labeled A (for number 1) B (for random number 2), C-Z.
v. Panelists were instructed to taste the solutions in alphabetical order.
With the assistance of Taste and Smell Consulting Group, Inc., taste panel members were trained adn tested for their ability to discriminate sucrose solutions of varying concentrations. In summary it may be stated that all 9 panel members had acceptble correlation scores. Their results were in good agreement with those which have been previously reported in siilar types of studies. For the test series the correlations for each panelist for sucrose and aspartame were acceptable as were the overall results obtained by averaging individual scores. The results of the taste panel are set forth in Table 2 wherein the parenthetical figures represent the standard error values for the number above.

[2] = Stability in aqueous solution (hplc, ambient temperature); format: physicochemical; conditions: 0.05m phosphate buffer, ambient temperature, read-out: degradation
Experimental: Stability was examined in aqueous solution at various pHs. Solutions (1% w/v) were prepared in 0.05M phosphate buffer adjusted to pH 7.4 and pH 3.5. Storage at ambient temperature over 36 days was monitored by hplc analysis (waters radial-pak reverse phase C-8 column, 25% CH3 CN, 0.05% TFA/H2 O eluant, 210 nm U.V. detection). Aspartame was examined similarly for comparison purposes.

[3] = Taste panel (Table 1, FIG. 2); conditions: for After Taste? (average score) / Bitter? (average score) / Off Taste? (average score) / Pleasant? (average score) / Salty? (average score) / Sweet? (average score): normalized to 100

CC(NC(=O)C(N)C(=O)O)C(=O)OC1CCCCC1C (mixture of isomers) [(23), DL-Aminomalonyl-D-alanine trans-2-Methylcyclohexyl Ester Citrate]
sweet taste (words) [1]: sweet

C[C@@H](NC(=O)C(N)C(=O)O)C(=O)OC12CC3CC(CC(C3)C1)C2 (mixture of isomers) [(22), DL-Aminomalonyl-D-alanine 1-Adamantyl Ester Citrate]
sweet taste (words) [1]: sweet

C[C@@H](NC(=O)C(N)C(=O)O)C(=O)OC1C2(C)CCC(C2)C1(C)C (mixture of isomers) [Compound (21), DL-Aminomalonyl-D-alanine Fenchyl Ester]
sweet taste (words) [1]: sweet | After Taste? (average score) ([1]; 0.0306 Millimolar): 12 | Bitter? (average score) ([1]; 0.0306 Millimolar): 3 | Off Taste? (average score) ([1]; 0.0306 Millimolar): 13 | Pleasant? (average score) ([1]; 0.0306 Millimolar): -9 | Salty? (average score) ([1]; 0.0306 Millimolar): 4 | Sweet? (average score) ([1]; 0.0306 Millimolar): 1 | After Taste? (average score) ([1]; 0.3064 Millimolar): 50 | Bitter? (average score) ([1]; 0.3064 Millimolar): 29 | Off Taste? (average score) ([1]; 0.3064 Millimolar): 56 | Pleasant? (average score) ([1]; 0.3064 Millimolar): -57 | Salty? (average score) ([1]; 0.3064 Millimolar): 9 | Sweet? (average score) ([1]; 0.3064 Millimolar): 8 | After Taste? (average score) ([1]; 3.0637 Millimolar): 79 | Bitter? (average score) ([1]; 3.0637 Millimolar): 90 | Off Taste? (average score) ([1]; 3.0637 Millimolar): 99 | Pleasant? (average score) ([1]; 3.0637 Millimolar): -83 | Salty? (average score) ([1]; 3.0637 Millimolar): 62 | Sweet? (average score) ([1]; 3.0637 Millimolar): 13

COC(=O)[C@H](Cc1ccccc1)NC(=O)[C@@H](N)CC(=O)O [Aspartame, methyl ester of L-α-Aspartyl-L-phenylalanine] (HELM PEPTIDE1{D.F.[CO[*:1]]}$$$$V2.0)
After Taste? (average score) ([1]; 0.3398 Millimolar): 1 | Bitter? (average score) ([1]; 0.3398 Millimolar): 1 | Off Taste? (average score) ([1]; 0.3398 Millimolar): 1 | Pleasant? (average score) ([1]; 0.3398 Millimolar): 16 | Salty? (average score) ([1]; 0.3398 Millimolar): 0 | Sweet? (average score) ([1]; 0.3398 Millimolar): 9 | After Taste? (average score) ([1]; 1.0194 Millimolar): 7 | Bitter? (average score) ([1]; 1.0194 Millimolar): 3 | Off Taste? (average score) ([1]; 1.0194 Millimolar): 6 | Pleasant? (average score) ([1]; 1.0194 Millimolar): 8 | Salty? (average score) ([1]; 1.0194 Millimolar): 10 | Sweet? (average score) ([1]; 1.0194 Millimolar): 27 | After Taste? (average score) ([1]; 3.3979 Millimolar): 16 | Bitter? (average score) ([1]; 3.3979 Millimolar): 2 | Off Taste? (average score) ([1]; 3.3979 Millimolar): 12 | Pleasant? (average score) ([1]; 3.3979 Millimolar): 22 | Salty? (average score) ([1]; 3.3979 Millimolar): 3 | Sweet? (average score) ([1]; 3.3979 Millimolar): 66 | After Taste? (average score) ([1]; 10.1937 Millimolar): 22 | Bitter? (average score) ([1]; 10.1937 Millimolar): 5 | Off Taste? (average score) ([1]; 10.1937 Millimolar): 17 | Pleasant? (average score) ([1]; 10.1937 Millimolar): 12 | Salty? (average score) ([1]; 10.1937 Millimolar): 0 | Sweet? (average score) ([1]; 10.1937 Millimolar): 64 | degraded at 864 h ([2]; pH 3.5, 36 days): > 50% | degraded at 216 h ([2]; pH 7.4 buffer, 9 days): 100% | After Taste? (average score) ([3]; 0.3392 Millimolar): 1 | Bitter? (average score) ([3]; 0.3392 Millimolar): 0 | Off Taste? (average score) ([3]; 0.3392 Millimolar): 1 | Pleasant? (average score) ([3]; 0.3392 Millimolar): 4 | Salty? (average score) ([3]; 0.3392 Millimolar): 1 | Sweet? (average score) ([3]; 0.3392 Millimolar): 15 | After Taste? (average score) ([3]; 1.0194 Millimolar): 2 | Bitter? (average score) ([3]; 1.0194 Millimolar): 0 | Off Taste? (average score) ([3]; 1.0194 Millimolar): 4 | Pleasant? (average score) ([3]; 1.0194 Millimolar): 15 | Salty? (average score) ([3]; 1.0194 Millimolar): 3 | Sweet? (average score) ([3]; 1.0194 Millimolar): 27 | After Taste? (average score) ([3]; 3.3979 Millimolar): 26 | Bitter? (average score) ([3]; 3.3979 Millimolar): 4 | Off Taste? (average score) ([3]; 3.3979 Millimolar): 2 | Pleasant? (average score) ([3]; 3.3979 Millimolar): 26 | Salty? (average score) ([3]; 3.3979 Millimolar): 2 | Sweet? (average score) ([3]; 3.3979 Millimolar): 68 | After Taste? (average score) ([3]; 10.1937 Millimolar): 34 | Bitter? (average score) ([3]; 10.1937 Millimolar): 0 | Off Taste? (average score) ([3]; 10.1937 Millimolar): 4 | Pleasant? (average score) ([3]; 10.1937 Millimolar): 9 | Salty? (average score) ([3]; 10.1937 Millimolar): 1 | Sweet? (average score) ([3]; 10.1937 Millimolar): 83 | sweetness potency (reciprocal of concentration required for a score of 50) ([3]; sucrose=1.0, weight scale): 126 | taste quality ([3]; taste panel): sweet and pleasant

CC(C)OC(=O)[C@H](C)NC(=O)C(N)C(=O)O (mixture of isomers) [Compound (20), DL-Aminomalonyl-L-alanine Isopropyl Ester]
sweet taste (words) [1]: not sweet | After Taste? (average score) ([1]; 0.0431 Millimolar): 0 | Bitter? (average score) ([1]; 0.0431 Millimolar): 9 | Off Taste? (average score) ([1]; 0.0431 Millimolar): 5 | Pleasant? (average score) ([1]; 0.0431 Millimolar): 14 | Salty? (average score) ([1]; 0.0431 Millimolar): 3 | Sweet? (average score) ([1]; 0.0431 Millimolar): 3 | After Taste? (average score) ([1]; 0.4307 Millimolar): 8 | Bitter? (average score) ([1]; 0.4307 Millimolar): 14 | Off Taste? (average score) ([1]; 0.4307 Millimolar): 8 | Pleasant? (average score) ([1]; 0.4307 Millimolar): 5 | Salty? (average score) ([1]; 0.4307 Millimolar): 16 | Sweet? (average score) ([1]; 0.4307 Millimolar): 8 | After Taste? (average score) ([1]; 4.3066 Millimolar): 5 | Bitter? (average score) ([1]; 4.3066 Millimolar): 0 | Off Taste? (average score) ([1]; 4.3066 Millimolar): 5 | Pleasant? (average score) ([1]; 4.3066 Millimolar): 19 | Salty? (average score) ([1]; 4.3066 Millimolar): 0 | Sweet? (average score) ([1]; 4.3066 Millimolar): 5 | sweet taste (words) ([1]; listed as 20): non-sweet

OC[C@H]1O[C@@](CO)(O[C@H]2O[C@H](CO)[C@@H](O)[C@H](O)[C@H]2O)[C@@H](O)[C@@H]1O [Sucrose]
After Taste? (average score) ([1]; 62.0000 Millimolar): 10 | Bitter? (average score) ([1]; 62.0000 Millimolar): 6 | Off Taste? (average score) ([1]; 62.0000 Millimolar): 9 | Pleasant? (average score) ([1]; 62.0000 Millimolar): 17 | Salty? (average score) ([1]; 62.0000 Millimolar): 9 | Sweet? (average score) ([1]; 62.0000 Millimolar): 3 | After Taste? (average score) ([1]; 125.0000 Millimolar): 4 | Bitter? (average score) ([1]; 125.0000 Millimolar): 2 | Off Taste? (average score) ([1]; 125.0000 Millimolar): 3 | Pleasant? (average score) ([1]; 125.0000 Millimolar): 21 | Salty? (average score) ([1]; 125.0000 Millimolar): 1 | Sweet? (average score) ([1]; 125.0000 Millimolar): 30 | After Taste? (average score) ([1]; 250.0000 Millimolar): 15 | Bitter? (average score) ([1]; 250.0000 Millimolar): 3 | Off Taste? (average score) ([1]; 250.0000 Millimolar): 12 | Pleasant? (average score) ([1]; 250.0000 Millimolar): 34 | Salty? (average score) ([1]; 250.0000 Millimolar): 7 | Sweet? (average score) ([1]; 250.0000 Millimolar): 52 | After Taste? (average score) ([1]; 500.0000 Millimolar): 9 | Bitter? (average score) ([1]; 500.0000 Millimolar): 0 | Off Taste? (average score) ([1]; 500.0000 Millimolar): 10 | Pleasant? (average score) ([1]; 500.0000 Millimolar): 35 | Salty? (average score) ([1]; 500.0000 Millimolar): 0 | Sweet? (average score) ([1]; 500.0000 Millimolar): 78 | After Taste? (average score) ([1]; 1000.0000 Millimolar): 8 | Bitter? (average score) ([1]; 1000.0000 Millimolar): 0 | Off Taste? (average score) ([1]; 1000.0000 Millimolar): 12 | Pleasant? (average score) ([1]; 1000.0000 Millimolar): 28 | Salty? (average score) ([1]; 1000.0000 Millimolar): 0 | Sweet? (average score) ([1]; 1000.0000 Millimolar): 95 | After Taste? (average score) ([3]; 62.0000 Millimolar): 0 | Bitter? (average score) ([3]; 62.0000 Millimolar): 3 | Off Taste? (average score) ([3]; 62.0000 Millimolar): 4 | Pleasant? (average score) ([3]; 62.0000 Millimolar): -4 | Salty? (average score) ([3]; 62.0000 Millimolar): 0 | Sweet? (average score) ([3]; 62.0000 Millimolar): 13 | After Taste? (average score) ([3]; 125.0000 Millimolar): 5 | Bitter? (average score) ([3]; 125.0000 Millimolar): 2 | Off Taste? (average score) ([3]; 125.0000 Millimolar): 4 | Pleasant? (average score) ([3]; 125.0000 Millimolar): 18 | Salty? (average score) ([3]; 125.0000 Millimolar): 8 | Sweet? (average score) ([3]; 125.0000 Millimolar): 30 | After Taste? (average score) ([3]; 250.0000 Millimolar): 0 | Bitter? (average score) ([3]; 250.0000 Millimolar): 0 | Off Taste? (average score) ([3]; 250.0000 Millimolar): 0 | Pleasant? (average score) ([3]; 250.0000 Millimolar): 49 | Sweet? (average score) ([3]; 250.0000 Millimolar): 64 | After Taste? (average score) ([3]; 500.0000 Millimolar): 7 | Bitter? (average score) ([3]; 500.0000 Millimolar): 6 | Off Taste? (average score) ([3]; 500.0000 Millimolar): 5 | Pleasant? (average score) ([3]; 500.0000 Millimolar): 32 | Salty? (average score) ([3]; 500.0000 Millimolar): 12 | Sweet? (average score) ([3]; 500.0000 Millimolar): 75 | After Taste? (average score) ([3]; 1000.0000 Millimolar): 30 | Bitter? (average score) ([3]; 1000.0000 Millimolar): 0 | Off Taste? (average score) ([3]; 1000.0000 Millimolar): 0 | Pleasant? (average score) ([3]; 1000.0000 Millimolar): 26 | Salty? (average score) ([3]; 1000.0000 Millimolar): 1 | Sweet? (average score) ([3]; 1000.0000 Millimolar): 97
